Data from patent US20040001839A1, “Multimers - isolated molecules comprising epitopes containing sulfated moieties, antibodies to such epitopes, and uses thereof” (priority 2000, published 2004).
Values belong to the molecule of their own block, whether it stands above or below them. No end group written: not given here. *: point of attachment. sulfate = O=S(=O)(O)*

Experiments:
[1] = system: scFv Y1 binding to glycocalicin; assay: Competitive binding ELISA of sulfated peptides (scFv Y1 binding to immobilized glycocalicin); parameters: species or system human; details: peptide 1, 10 and 100 μM, preincubated 10 minutes with scFv Y1
Procedure: A competitive binding ELISA assay was used to assess the importance of the presence and position of sulfated tyrosines to the binding of peptides to Y1.
Glycocalicin was immobilized on a Maxisorb plate. scFv Y1 was preincubated with a peptide of interest for 10 minutes at three different concentrations (1, 10 and 100 μM) in order to observe a dose response. (Table 12). After preincubation, the mixture (Y1+peptide) was added to the plate, and binding of scFv Y1 was assessed using polyclonal rabbit anti-VL, which recognizes the VL chain of scFv Y1, followed by anti-rabbit-HRP. In mixtures in which the peptide bound to scFv Y1, a decrease in the binding of scFv Y1 to glycocalicin compared to control binding was observed.

KG-1 cells = assay: AML KG-1 model in NOD/SCID mice; assay type: in vivo
Procedure: The in vivo mouse model for human AML uses SCID/NOD mice (Jackson Laboratories) inoculated with KG-1 cells derived from a human AML cell line.
In a first experiment, NOD/SCID mice were pretreated with 100 mg/kg CYTOXAN®. Four days post CYTOXAN® injection, KG-1 cells were injected intravenously into the tail vein of six groups of mice. (Table N, Groups 2 and 5-9). One group of mice (Table N, Group 1) was injected with PBS alone (control). [273.][273.]
Beginning 19 days post KG-1 injection mice were treated with: CONY1, Doxorubicin, CONY1-Doxorubicin conjugate, or Mylotarg®. (Mylotarg® is a monoclonal antibody (anti CD33) conjugated chemically to calcheamicin recently approved by the FDA for treatment of AML patients age 60 and over in a first relapse.) Mice were treated once or three times per week for three weeks. One group (group 2) of KG-1 inoculated mice were left untreated. (Table N). Two other groups of mice (groups 3 and 4) were injected with KG-1 cells that were previously incubated with CONY1 or 181-scFv (a negative, non-specific control antibody) in serum free RPMI containing 1% BSA at 4° C. for 1 h. The antibodies were used at a concentration of 0.25 mg scFv/10^8 cells (75 μg/mouse). Before injection into the mice the preincubated KG-1 cells were washed and resuspended in RPMI. The KG-1 cells in RPMI were inoculated into mice at a concentration of 75 μg scFv/0.2 ml RPMI per mouse. Group 3 mice were inoculated with KG-1+CONY1, and group 4 mice were inoculated with KG-1+181-scFv. (Table N). This treatment (group 3 and 4) was carried out one day after the inoculation of groups 1-2 and 5-9, i.e., at five days after CYTOXAN injection.
Mice were sacrificed from 60 to 65 days post cell injection. Bone marrow and blood samples were analyzed by flow cytometry using mouse anti human CD34-FITC (IQP 144F) (or anti CD44-FITC (MCA89F, Serotec)) and Y1-Biotin/SAV-PE. Mouse IgG1-FITC (IQP 191-F) was used as an isotype control, and mouse IgG2a-FITC (MCA929F, Serotec) was used as a negative control. Flow cytometry was performed using FACSCalibur system and CellQwest software, Becton Dickinson.
An additional experiment was performed in which SCID-NOD mice were i.v. injected with 3×10^4 MOLT-4 cells/mouse 5 days post treatment with cyclophosphamide. Anti-cancer agents or PBS were injected IV three times/week, from day 14 onward. On day 60, blood was drawn, then the animals were sacrificed. Bone marrow was extracted and analyzed by FACS analysis using a commercially available antiCD44 antibody for the detection of MOLT-4 cells in the mice bone marrow cell population.

inhibition of Y1 binding to glycocalicin [1]: best inhibitors
Molecule: QATEYEY*LDY*DFLPETE (QATEYEY(sulfate)LDY(sulfate)DFLPETE) [P-YY*Y*, PSGL-1 n-terminus peptide, sulfated]

inhibition of Y1 binding to glycocalicin [1]: did inhibit
Molecule: GDEGDTDLY*DY*Y*PEEDTE (GDEGDTDLY(sulfate)DY(sulfate)Y(sulfate)PEEDTE) [G-Y*Y*Y*, GPIbα peptide, sulfated]

Molecule: COc1cccc2c1C(=O)c1c(O)c3c(c(O)c1C2=O)C[C@@](O)(C(=O)CO)C[C@@H]3O[C@H]1C[C@H](N)[C@H](O)[C@H](C)O1 [Doxorubicin]
percentage of KG-1 cells in bone marrow compared to group 2 (untreated) (KG-1 cells; 0.1 mg/kg free Doxorubicin, 3 times per week (group 6)): statistically significant (p<0.05) lower percentage of KG-1 cells
mice that died within three weeks after treatment initiation (KG-1 cells; 5 mg/kg free Doxorubicin, 1 time per week (group 7)): Nine out of 10
reduction in the number of tumor cells in the bone marrow (KG-1 cells; additional experiment, day 60, Doxorubicin alone or as conjugate 75 μg/mouse): 50%

Molecule: Mylotarg: monoclonal antibody (anti CD33) conjugated chemically to calcheamicin
KG-1 cells in bone marrow (KG-1 cells; 0.2 mg/kg, 1 time per week (group 9)): free of KG 1 cells
prevalence of bone marrow cancer, day 60 (KG-1 cells; additional experiment, 7 μg/mouse, once a week): completely inhibited
